Laboratory results reported in patent US20180312473A1, “PHENAZINE DERIVATIVES AS ANTIMICROBIAL AGENTS” (priority 2015, published 2018).
In brackets after ≈: the same amount, converted by molar mass. Read-outs that look alike come from different tables or passages of the source.

Assays:
[1] = tested on: human red blood cells; assay: Hemolysis assay with red blood cells; settings: human, 1 h, 200 μM, pH 7.2
How it was run: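 Washed human red blood cells exposed to compounds added from DMSO stocks, 1 h at 37° C.; supernatant OD read at 405 nm after centrifugation. % hemolysis calculated relative to DMSO (0%) and Triton X (100%) controls, from three independent experiments.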

[2] = tested on: K. pneumoniae 13883; assay: MIC assay (broth microdilution, CLSI); type: cell-based, Klebsiella pneumoniae; settings: Klebsiella pneumoniae, 13883; read-out: K. pneumoniae 13883 MIC
[3] = tested on: HeLa cells; assay: in vitro; type: cell-based; settings: human, 24 h
[4] = in vitro; type: cell-based; settings: human
[5] = tested on: MRSA BAA-44; assay: MIC assay (broth microdilution, CLSI); settings: Staphylococcus aureus, read-out: MIC, MRSA BAA-44
[6] = tested on: Enterococcus faecium (ATCC 700221), VRE; assay: MIC assay (broth microdilution, CLSI); type: cell-based
[7] = tested on: MRSA-2 planktonic cells and biofilms; assay: Calgary Biofilm Device (CBD) assay, MBC/MBEC; type: cell-based, Staphylococcus aureus; settings: Staphylococcus aureus, MRSA
[8] = tested on: MRSE (S. epidermidis ATCC 35984) planktonic cells and biofilms; assay: Calgary Biofilm Device (CBD) assay, MBC/MBEC; type: cell-based, Staphylococcus epidermidis; settings: for MBC: Staphylococcus epidermidis
[9] = tested on: P. aeruginosa (PAO1); assay: MIC assay (broth microdilution, CLSI); type: cell-based; settings: Pseudomonas aeruginosa, PAO1; read-out: PAO1 MIC
[10] = tested on: MRSA BAA-1707 planktonic cells and biofilms; assay: Calgary Biofilm Device (CBD) assay, MBC/MBEC; settings: Staphylococcus aureus, read-out: MRSA BAA-1707 MBC
[11] = tested on: E. coli UAEC-1; assay: MIC assay (broth microdilution, CLSI); type: cell-based; settings: Escherichia coli, UAEC1; read-out: E. coli UAEC-1 MIC
[12] = tested on: E. faecium 700221 (VRE); assay: MIC assay with Tiron or metal(II) cation co-treatment; type: cell-based, Enterococcus faecium; settings: Enterococcus faecium, VRE
[13] = tested on: MRSA BAA-44 planktonic cells and biofilms; assay: Calgary Biofilm Device (CBD) assay, MBC/MBEC; settings: Staphylococcus aureus, read-out: MRSA BAA-44 MBC
[14] = tested on: methicillin-resistant S. aureus (MRSA) strains; assay: MIC assay, values summarised over MRSA strains; type: cell-based, Staphylococcus aureus
[15] = tested on: VRE (E. faecium ATCC 700221) planktonic cells and biofilms; assay: Calgary Biofilm Device (CBD) assay, MBC/MBEC; type: cell-based, Enterococcus faecium; settings: c lowest concentration tested; for MBC: Enterococcus
[16] = tested on: A. baumannii 19606; assay: MIC assay (broth microdilution, CLSI); type: cell-based, Acinetobacter baumannii; settings: Acinetobacter baumannii, 19606; read-out: A. baumannii 19606 MIC
[17] = tested on: S. aureus clinical isolate SA 129; assay: MIC assay (broth microdilution, CLSI); settings: Staphylococcus aureus, read-out: MIC, SA 129
[18] = tested on: S. aureus clinical isolate SA 138; assay: MIC assay (broth microdilution, CLSI); settings: Staphylococcus aureus, read-out: MIC, SA 138
[19] = tested on: MRSA-2; assay: MIC assay with Tiron or metal(II) cation co-treatment; type: cell-based, Staphylococcus aureus; settings: Staphylococcus aureus; MRSA-2, 200 μM iron(II); read-out: MIC with Fe^2+
[20] = tested on: MRSA-2 (methicillin-resistant Staphylococcus aureus clinical isolate); assay: MIC assay (broth microdilution, CLSI); type: cell-based; settings: Staphylococcus aureus, MRSA
[21] = tested on: MRSA-2 persister cells (stationary cultures); settings: 100 μM; for MRSA-2 stationary killing: reduction of viable cells over 24 h
[22] = tested on: MRSA BAA-1707; assay: MIC assay (broth microdilution, CLSI); settings: Staphylococcus aureus, read-out: MIC, MRSA BAA-1707
[23] = tested on: Staphylococcus epidermidis (ATCC 35984), MRSE; assay: MIC assay (broth microdilution, CLSI); type: cell-based; settings: Staphylococcus epidermidis, Table 7; read-out: MIC, MRSE 35984
[24] = tested on: Staphylococcus epidermidis (ATCC 12228); assay: MIC assay (broth microdilution, CLSI); type: cell-based; settings: Staphylococcus epidermidis, ATCC12228
[25] = Spectrophotometric determination of dissociation constants (pKa); type: physicochemical; settings: UV-vis at varying pH, 1:1 water:methanol buffers
Description: Dissociation constants (pKa) for select analogues were determined by implementing UV-vis spectroscopy at varying pH values. Buffers were prepared using potassium phosphate monobasic (KH2PO4) and sodium phosphate dibasic (Na2HPO4) in a 1:1 solution of water:methanol to achieve a pH range of 3.78 to 10.94. Compounds were added from 10 mM stock solutions in dimethyl sulfoxide (12.5 μL) to 987.5 μL of each buffer to yield a final compound concentration of 125 μM. Full spectral scans were performed for each evaluated analogue at pH 3.78 and pH 10.94 from 300 to 800 nm to determine λmax values for the protonated phenol (HA; e.g., HP 2 below) and the deprotonated phenolate species (A^−; e.g., conjugate base of HP 2 below). The change in absorption at each determined λmax in relation to pH was then monitored in each buffer and then plotted as absorbance versus pH for each species. The pKa was first estimated by determining the pH of the point of intersection of the two linear curves as shown. The visual estimation was confirmed by plotting pH versus log [A^−/HA]. The resulting plot yielded a linear regression line with a Y-intercept corresponding to a calculated pKa value.

[26] = tested on: M. tuberculosis H37Ra (ATCC 25177); assay: Mycobacterium tuberculosis MIC assay; type: cell-based
Description: (§1) The culture was then diluted with fresh medium until an OD600 of 0.01 was reached. […] The final DMSO concentration was maintained at 0.5%. […] Three rows were reserved for each compound. […] OD600 absorbance was recorded using SPECTRAMAX M5 (Molecular Devices). Data obtained from three independent experiments were analyzed using Excel.
as §1, with “EXCEL.” for “Excel.”

[27] = tested on: MRSA-1 (methicillin-resistant Staphylococcus aureus clinical isolate); assay: MIC assay (broth microdilution, CLSI); type: cell-based; settings: read-out: MIC, MRSA-1
[28] = Enterococcus faecium, Table 2A, read-out: MIC, Enterococcus faecium (ATCC 700221)
[29] = Table 7, b lowest concentration tested, read-out: MIC, VRE 700221
[30] = Table 8, a/b 2-/4-fold range in independent experiments, read-out: MRSA-2 MBC
[31] = Table 8, read-out: MRSE 35984 MBC
[32] = Table 8, read-out: VRE 700221 MBC
[33] = Enterococcus faecium, Table 2B, b lowest concentration tested, read-out: MIC, Enterococcus faecium (ATCC 700221)
[34] = Table 7, b lowest concentration tested, read-out: MIC, S. epidermidis 12228

| SMILES | melting point | % Hemolysis (200 μM) [1] | % Hemolysis at 200 μM [1] | IC50 [3] | IC50 at 24 h [4] | MIC [5] | MIC [6, 28] | MIC [6, 29] | MBC [7, 30] | MBC [8, 31] | MBC [10] | MBC [13] | growth inhibition activity against at least one MRSA strain [14] | MBC [15, 32] | MIC [6, 33] | MIC [22] | MIC [24, 34] | also measured |
| --- | --- | --- | --- | --- | --- | --- | --- | --- | --- | --- | --- | --- | --- | --- | --- | --- | --- | --- |
| Oc1c(Br)cc(I)c2nc3ccccc3nc12 [Compound 8, 2-Bromo-4-iodo-1-hydroxyphenazine] | 186 to 188 °C | 2.9% | 2.9% | > 100 µM | > 100 µM | 1.17 µM (≈ 0.469 µg/mL) | 6.25 µM (≈ 2.51 µg/mL) | 6.25 µM (≈ 2.51 µg/mL) | 31.3 µM (≈ 12.6 µg/mL) | 11.7 µM (≈ 4.69 µg/mL) | 23.5 µM (≈ 9.42 µg/mL) | 46.9 µM (≈ 18.8 µg/mL) | sub-micromolar | 3 µM (≈ 1.2 µg/mL) | – | – | – | MIC [2]: > 100 µM; MBC ([7]; Table 4, read-out: MBC, MRSA-2): 31.3 µM (≈ 12.6 µg/mL); MIC [9]: > 100 µM; MIC [11]: > 100 µM; MIC ([12]; E. faecium 700221, 200 μM CuSO4, read-out: MIC with Cu^2+): 3.13 µM; MIC ([12]; E. faecium 700221, 1 mM Tiron, read-out: MIC with Tiron): 3.13 µM; MIC ([12]; E. faecium 700221, no additive, read-out: MIC): 3.13 µM; MIC [16]: 50 µM (≈ 20.1 µg/mL) |
| CCCCc1cc(Br)c(O)c2nc3ccccc3nc12 [Compound 22, 2-Bromo-4-butyl-1-hydroxyphenazine] | 135 to 137 °C | – | – | – | – | – | – | 0.78 µM (≈ 0.258 µg/mL) | 46.9 µM (≈ 15.5 µg/mL) | 11.7 µM (≈ 3.88 µg/mL) | 46.9 µM (≈ 15.5 µg/mL) | – | – | 2 µM (≈ 0.662 µg/mL) | – | – | – | MIC [17]: 1.17 µM (≈ 0.388 µg/mL); MIC [18]: 3.13 µM (≈ 1.04 µg/mL) |
| CC(=O)NC[C@H]1CN(c2ccc(N3CCOCC3)c(F)c2)C(=O)O1 [Linezolid, linezolid, reference compound] | – | ≤1% | – | – | – | – | – | 3.13 µM (≈ 1.06 µg/mL) | – | – | 31.3 µM (≈ 10.6 µg/mL) | – | – | 469 µM (≈ 158 µg/mL) | 3.13 µM (≈ 1.06 µg/mL) | – | – | MIC [19]: 6.25 µM; MIC ([20]; Table 7, a midpoint of 2-fold range, b lowest concentration tested, read-out: MIC, MRSA-2): 3.13 µM (≈ 1.06 µg/mL); log reduction of MRSA-2 persisters after 3 hours ([21]; 3 hours): 2 log; MRSA-2 stationary killing [21]: ~1 log; MRSA-2 stationary killing ([21]; listed as linezolid): 1 log |
| Oc1c(Br)cc(Br)c2nc3ccc(Br)cc3nc12 [Compound 18, 2,4,8-Tribromo-1-hydroxyphenazine] | 239 to 241 °C | – | 2.1% | – | – | – | – | – | 50 µM (≈ 21.6 µg/mL) | – | 12.5 µM (≈ 5.41 µg/mL) | – | sub-micromolar | – | – | 0.2 µM (≈ 0.0866 µg/mL) | 3.13 µM (≈ 1.35 µg/mL) | MIC [23]: 3.13 µM (≈ 1.35 µg/mL); MIC ([14]; Staphylococcus aureus, MRSA, range over the MRSA strains/isolates tested, read-out: MIC against MRSA strains): 0.15 to 0.78 µM (≈ 0.0649 to 0.338 µg/mL) |
| O=[N+]([O-])c1ccc(O)cc1 [4-nitrophenol, reference compound] | – | – | – | – | – | – | – | – | – | – | – | – | – | – | – | – | – | pKa [25]: 7.62 |
| Oc1c(Br)cc(Br)c2nc3cc(Br)c(Br)cc3nc12 [Compound 17, 2,4,7,8-tetrabromo-1-hydroxyphenazine] | – | ≤1% | – | > 100 µM | > 100 µM | 25 µM (≈ 12.8 µg/mL) | 0.39 µM (≈ 0.2 µg/mL) | 0.39 µM (≈ 0.2 µg/mL) | – | – | 6.25 µM (≈ 3.2 µg/mL) | 50 µM (≈ 25.6 µg/mL) | – | 0.39 µM (≈ 0.2 µg/mL) | 0.39 µM (≈ 0.2 µg/mL) | 12.5 µM (≈ 6.4 µg/mL) | 0.08 µM (≈ 0.0409 µg/mL) | MIC ([20]; read-out: MIC, MRSA-2): 6.25 µM (≈ 3.2 µg/mL); MIC ([20]; read-out: MIC, MRSA-2, Table 2B, a midpoint of 2-fold range, * partial growth inhibition at highest concentration): 6.25 µM (≈ 3.2 µg/mL); MIC ([20]; read-out: MIC, MRSA-2, Table 7, a midpoint of 2-fold range, b lowest concentration tested): 6.25 µM (≈ 3.2 µg/mL); MIC ([26]; Mycobacterium tuberculosis, 168 h, M. tuberculosis H37Ra, 7 days, read-out: Mtb MIC): > 50 µM; MIC ([26]; Mycobacterium tuberculosis, Table 7, read-out: MIC, M. tuberculosis H37Ra): > 50 µM; MIC ([26]; Table 7, read-out: MIC, M. tuberculosis H37Ra): >50 µM; MBC ([8]; read-out: MBC, Staphylococcus epidermidis (ATCC 35984)): 1.56 µM (≈ 0.798 µg/mL); MBC ([8]; read-out: MRSE 35984 MBC): 1.56 µM (≈ 0.798 µg/mL); MBC ([8]; read-out: MRSE MBC): 1.56 µM (≈ 0.798 µg/mL); MBEC, Staphylococcus epidermidis (ATCC 35984) ([8]; Table 4): 6.25 µM; MRSE MBEC ([8]; Table 5): 6.25 µM; MIC ([24]; Table 2A, read-out: MIC, Staphylococcus epidermidis (ATCC 12228)): 0.05 to 0.1 µM (≈ 0.0256 to 0.0512 µg/mL); MIC ([27]; Staphylococcus aureus, MRSA): 12.5 µM (≈ 6.4 µg/mL); MIC ([27]; Table 2B, b lowest concentration tested): 12.5 µM (≈ 6.4 µg/mL); MBC ([15]; Table 5, read-out: VRE MBC): 0.39 µM (≈ 0.2 µg/mL); VRE MBEC ([15]; Table 5): 0.39/0.39 μM |
